Tests used:
Experiment in all cases: weeding effect in post-emergence stage
Format in all cases: in vivo
Alopecurus japonicus = system: Alopecurus japonicus
Source text: (§1) The activity level criteria for plant damage (i.e., growth control rate) are as follows: • Level 5: growth control rate is above 85%; • Level 4: growth control rate is greater than or equal to 60% and less than 85%; • Level 3: growth control rate is greater than or equal to 40% and less than 60%; • Level 2: growth control rate is greater than or equal to 20% and less than 40%; • Level 1: growth control rate is greater than or equal to 5% and less than 20%; • Level 0: growth control rate is less than 5%.
(§2) The above growth control rates are fresh weight control rates.
(§3) Experiment on weeding effect in post-emergence stage:
(§4) Monocotyledonous and dicotyledonous weed seeds (Descurainia sophia, Capsella bursa-pastoris, Abutilon theophrasti, Galium aparine, Stellaria media, Lithospermum arvense, Rorippa indica, Alopecurus aequalis, Alopecurus japonicus, Beckmannia syzigachne, Sclerochloa dura, Conyza Canadensis, Phleum paniculatum, Veronica didyma Tenore, Bromus japonicus, Aegilops tauschii, Phalaris arundinacea, Amaranthus retroflexus, Chenopodium album, Commelina communis, Sonchus arvensis, Convolvulus arvensis, Cirsium setosum, Solanum nigrum, Acalypha australis, Digitaria sanguinalis, Echinochloa crusgalli, Setaria viridis, Setaria glauca, Leptochloa chinensis, Monochoria vaginalis, Sagittaria trifolia, Scirpus juncoides, Cyperus rotundus, Cyperus iria, Cyperus difformis, Fimbristylis, Portulaca oleracea, Xanthium sibiricum, Pharbitis nil, Conyza japonica, etc.) and major crop seeds (wheat, corn, rice, soybean, cotton, oilseed rape, millet, sorghum, potato, sesame, ricinus, etc.) were placed in plastic pots filled with soil, then covered with 0.5-2 cm of soil, allowed to grow in a good greenhouse environment. After 2 weeks of sowing, the test plants were treated in the 2-3 leaf stage. The tested compounds of the present invention were respectively dissolved in acetone, then added with Tween 80 and 1.5 liter/ha of emulsifiable concentrate of methyl oleate as synergist, diluted with a certain amount of water to obtain a solution with a certain concentration, and sprayed with a spray tower onto the plants. After the application, the plants were cultured for 3 weeks in the greenhouse, and then the experimental results of the weeding were counted. The doses of the used compounds were 500, 250, 125, 60, 15, 7.5 g a.i./ha, and the averages were obtained by repeating for three times.

Beckmannia syzigachne = system: Beckmannia syzigachne
Source text: as §1, §2, §3, §4

Conyza japonica = system: Conyza japonica
Source text: as §1, §2, §3, §4

Rorippa indica = system: Rorippa indica
Source text: as §1, §2, §3, §4

Structure (SMILES)	weeding effect in post-emergence stage, Alopecurus japonicus (activity level) (Alopecurus japonicus; dose 125 g a.i./ha)	weeding effect in post-emergence stage, Beckmannia syzigachne (activity level) (Beckmannia syzigachne; dose 125 g a.i./ha)	weeding effect in post-emergence stage, Conyza japonica (activity level) (Conyza japonica; dose 15 g a.i./ha)	weeding effect in post-emergence stage, Conyza japonica (activity level) (Conyza japonica; dose 125 g a.i./ha)	weeding effect in post-emergence stage, Rorippa indica (activity level) (Rorippa indica; dose 15 g a.i./ha)	weeding effect in post-emergence stage, Rorippa indica (activity level) (Rorippa indica; dose 125 g a.i./ha)	weeding effect in post-emergence stage, Alopecurus japonicus (activity level) (Alopecurus japonicus; dose 15 g a.i./ha)	weeding effect in post-emergence stage, Beckmannia syzigachne (activity level) (Beckmannia syzigachne; dose 15 g a.i./ha)
CCOCC1(C(=O)OCC)CC(c2cc(-n3c(=O)n(C)c(=S)n(C)c3=O)c(F)cc2Cl)=NO1 (racemic) [Compound 43]	5 (Level 5: growth control rate is above 85%)	5 (Level 5: growth control rate is above 85%)	4 (Level 4: growth control rate is greater than or equal to 60% and less than 85%)	5 (Level 5: growth control rate is above 85%)	5 (Level 5: growth control rate is above 85%)	5 (Level 5: growth control rate is above 85%)		
CCOC(=O)COCC1(C(=O)OCC)CC(c2cc(-n3c(=O)n(C)c(=S)n(C)c3=O)c(F)cc2Cl)=NO1 (racemic) [Compound 54]	5 (Level 5: growth control rate is above 85%)	5 (Level 5: growth control rate is above 85%)		5 (Level 5: growth control rate is above 85%)		5 (Level 5: growth control rate is above 85%)		
COC(=O)C1(c2ccccc2)CC(c2cc(-n3c(=O)n(C)c(=S)n(C)c3=O)c(F)cc2Cl)=NO1 (racemic) [Compound 56]	5 (Level 5: growth control rate is above 85%)	5 (Level 5: growth control rate is above 85%)		5 (Level 5: growth control rate is above 85%)		5 (Level 5: growth control rate is above 85%)		
COC(=O)C1(Cc2ccccc2)CC(c2cc(-n3c(=O)n(C)c(=S)n(C)c3=O)c(F)cc2Cl)=NO1 (racemic) [Compound 59]	5 (Level 5: growth control rate is above 85%)	5 (Level 5: growth control rate is above 85%)		5 (Level 5: growth control rate is above 85%)		5 (Level 5: growth control rate is above 85%)		
CCOC(=O)C1(CC)CC(c2cc(-n3c(=O)cc(C(F)(F)F)n(C)c3=O)c(F)cc2Cl)=NO1 (racemic) [Compound 105]	5 (Level 5: growth control rate is above 85%)	5 (Level 5: growth control rate is above 85%)	5 (Level 5: growth control rate is above 85%)	5 (Level 5: growth control rate is above 85%)	5 (Level 5: growth control rate is above 85%)	5 (Level 5: growth control rate is above 85%)	5 (Level 5: growth control rate is above 85%)	5 (Level 5: growth control rate is above 85%)
CCOC(=O)C1(C2CC2)CC(c2cc(-n3c(=O)cc(C(F)(F)F)n(C)c3=O)c(F)cc2Cl)=NO1 (racemic) [Compound 119]	5 (Level 5: growth control rate is above 85%)	5 (Level 5: growth control rate is above 85%)	5 (Level 5: growth control rate is above 85%)	5 (Level 5: growth control rate is above 85%)	5 (Level 5: growth control rate is above 85%)	5 (Level 5: growth control rate is above 85%)	5 (Level 5: growth control rate is above 85%)	5 (Level 5: growth control rate is above 85%)
CCOC(=O)C1(C2CCC2)CC(c2cc(-n3c(=O)cc(C(F)(F)F)n(C)c3=O)c(F)cc2Cl)=NO1 (racemic) [Compound 126]	5 (Level 5: growth control rate is above 85%)	5 (Level 5: growth control rate is above 85%)		5 (Level 5: growth control rate is above 85%)		5 (Level 5: growth control rate is above 85%)		
COC(=O)C1(F)CC(c2cc(-n3c(=O)cc(C(F)(F)F)n(C)c3=O)c(F)cc2Cl)=NO1 (racemic) [Compound 129]	5 (Level 5: growth control rate is above 85%)	5 (Level 5: growth control rate is above 85%)		5 (Level 5: growth control rate is above 85%)		5 (Level 5: growth control rate is above 85%)		
CCOC(=O)C1(CF)CC(c2cc(-n3c(=O)cc(C(F)(F)F)n(C)c3=O)c(F)cc2Cl)=NO1 (racemic) [Compound 132]	5 (Level 5: growth control rate is above 85%)	5 (Level 5: growth control rate is above 85%)		5 (Level 5: growth control rate is above 85%)		5 (Level 5: growth control rate is above 85%)		
CCOC(=O)C1(C(F)F)CC(c2cc(-n3c(=O)cc(C(F)(F)F)n(C)c3=O)c(F)cc2Cl)=NO1 (racemic) [Compound 134]	5 (Level 5: growth control rate is above 85%)	5 (Level 5: growth control rate is above 85%)		5 (Level 5: growth control rate is above 85%)		5 (Level 5: growth control rate is above 85%)		
CCOC(=O)C1(C(F)(F)F)CC(c2cc(-n3c(=O)cc(C(F)(F)F)n(C)c3=O)c(F)cc2Cl)=NO1 (racemic) [Compound 135]	5 (Level 5: growth control rate is above 85%)	5 (Level 5: growth control rate is above 85%)		5 (Level 5: growth control rate is above 85%)		5 (Level 5: growth control rate is above 85%)		
CCOC(=O)C1(CCF)CC(c2cc(-n3c(=O)cc(C(F)(F)F)n(C)c3=O)c(F)cc2Cl)=NO1 (racemic) [Compound 136]	5 (Level 5: growth control rate is above 85%)	5 (Level 5: growth control rate is above 85%)		5 (Level 5: growth control rate is above 85%)		5 (Level 5: growth control rate is above 85%)		

Reference: patent publication US12509452B2, “Substituted-isoxazoline-containing aromatic compound, preparation method therefor, herbicidal composition and use thereof” (QINGDAO KINGAGROOT CHEMICAL COMPOUND CO., LTD., priority 2019, dated 2025)
